{"source": "patent US20220040092A1", "about": "“Ready to use injectable formulations of Micafungin Sodium” (RK Pharma Solutions LLC, priority 2020, published 2022)", "key": {"[1]": {"assay": "Storage stability of ready-to-use micafungin sodium solution in vials at 2-8° C. (purity and impurities by RRT)", "assay_type": "physicochemical", "details": "API (drug substance used)", "procedure": "As used herein, “relative retention time” (“RRT”) is calculated by dividing the retention time of the peak of interest by the retention time of the main peak. Any peak with an RRT<1 elutes before the main peak, and any peak with an RRT>1 elutes after the main peak. […]"}, "[2]": {"details": "cited from earlier work"}}, "note": "“And” between values parts separate entries of the source, which are not always exact repeats. Equal entries are not always repeated. Where two headings read alike, the source gives them in different places. Starred links: 1 amine or outer side, 2 acyl side, 3 side chain; linkers in the order of their positions; H or OH if unused. Positions of bridges follow the written chain, without caps; N, C: chain ends. Non-standard residues stand in square brackets, D forms with d. Residues, ends and D or L forms follow the SMILES beside them. *: point of attachment. hTyr(3S-OH,4S-OH,3'-OSO3H) = N[C@H](C(=O)O)[C@H](O)[C@@H](O)c1ccc(O)c(OS(=O)(=O)O)c1; Orn(4R-OH,5R-OH) = O=C([C@H](C[C@@H](O)[C@@H](O)N[*:3])N[*:1])[*:2]; Pro(3S-OH,4S-Me) = C[C@H]1CN[C@H](C(=O)O)[C@H]1O; X1 = CCCCCOc1ccc(-c2cc(-c3ccc(C(=O)*)cc3)no2)cc1; Gln(3R-OH) = NC(=O)C[C@@H](O)[C@H](N)C(=O)O; Hyp = O=C(O)[C@@H]1C[C@@H](O)CN1"}
{"smiles": "CCCCCOc1ccc(-c2cc(-c3ccc(C(=O)N[C@H]4C[C@@H](O)[C@@H](O)NC(=O)[C@@H]5[C@@H](O)[C@@H](C)CN5C(=O)[C@H]([C@H](O)CC(N)=O)NC(=O)[C@H]([C@H](O)[C@@H](O)c5ccc(O)c(OS(=O)(=O)O)c5)NC(=O)[C@@H]5C[C@@H](O)CN5C(=O)[C@H]([C@@H](C)O)NC4=O)cc3)no2)cc1", "note": "[Micafungin sodium, {5-[(1S,2S)-2-[(3S,6S,9S,11R,15S,18S,20R,21R,24S,25S,26S)-3-[(1R)-2-carbamoyl-1-hydroxyethyl]-11,20,21,25-tetrahydroxy-15-[(1R)-1-hydroxyethyl]-26-methyl-2,5,8,14,17,23-hexaoxo-18-[(4-{5-[4-(pentyloxy)phenyl]-1,2-oxazol-3-yl)benzene)amido]-1,4,7,13,16,22-hexaazatricyclo[22.3.0.0.0^9,13]heptacosan-6-yl]-1,2-dihydroxyethyl]-2-hydroxyphenyl} oxidanesulfonic acid] (X1-[Orn(4R-OH,5R-OH)]T[Hyp][hTyr(3S-OH,4S-OH,3'-OSO3H)][Gln(3R-OH)][Pro(3S-OH,4S-Me)]; lactam 1-C)", "values": [{"measurement": "Imp at RRT 1.02", "setting": "[1]", "value": 0.24}, {"measurement": "Imp at RRT 0.93", "setting": "[1]; listed as API", "value": "0.64 and 0.58"}, {"measurement": "Imp. E", "setting": "[1]; listed as API", "value": "0.01 and 0.02"}, {"measurement": "Purity", "setting": "[1]; listed as API", "value": "99.25 and 98.97"}, {"measurement": "Solubility", "setting": "[2]; N,N-dimethylformamide", "value": "freely soluble"}, {"measurement": "Solubility", "setting": "[2]; acetone", "value": "practically insoluble"}, {"measurement": "Solubility", "setting": "[2]; acetonitrile", "value": "practically insoluble"}, {"measurement": "Solubility", "setting": "[2]; diethyl ether", "value": "practically insoluble"}, {"measurement": "Solubility", "setting": "[2]; dimethylsulfoxide", "value": "freely soluble"}, {"measurement": "Solubility", "setting": "[2]; ethyl alcohol (95%)", "value": "practically insoluble"}, {"measurement": "Solubility", "setting": "[2]; isotonic sodium chloride solution", "value": "freely soluble"}, {"measurement": "Solubility", "setting": "[2]; methyl alcohol", "value": "slightly soluble"}, {"measurement": "Solubility", "setting": "[2]; n-hexane", "value": "practically insoluble"}, {"measurement": "Solubility", "setting": "[2]; water", "value": "freely soluble"}]}
